{"source": "patent US12653796B2", "about": "“Compounds for use (in particular RIPA-56) in the prevention and/or treatment of non-alcoholic fatty liver disease” (SORBONNE UNIVERSITE, priority 2019, dated 2026)", "key": {"[1]": {"test_system": "MLKL", "assay": "Western blot of MLKL phosphorylation/activation in TNF-treated L929 cells", "format": "cell-based", "settings": "within hours", "procedure": "FIG. 1. RIPA-56 prevents RIPK1-dependent cell death in L929 cells upon caspase inhibition and TNF stimulation. L929 cells were treated with RIPA-56 (20 μM), Nec-1 (20 μM) or vehicle for 2 h, prior to incubation with or without TNF (50 ng/mL), and analyzed for (A) morphology and (B) cell survival using MTT assay, after 20 h incubation with or without TNF; (C) Western blot analyses at different time points of incubation with TNF. Results are shown as mean±SEM; n.s., not significant; ****p<0.0001. Data are representative of three independent experiments.\nL929 cells (LGC Standards, Molsheim, France), were cultured in Dulbecco's modified Eagle's medium (DMEM) (ThermoFisher, Massachusetts, USA) supplemented with 10% fetal bovine serum (Eurobio, Courtaboeuf, France), penicillin (100 IU/ml), streptomycin (0.1 mg/ml), and L-glutamine (0.03%) (ThermoFisher). […]\nTissue samples were homogenized in NP-40 lysis buffer using a tissue grind pestle (Kimble, Rockwood, USA) or with a bead ruptor 12 (Omni International, Georgia, USA) to obtain protein lysates. Thirty μg of protein extracts from cells or tissue homogenates were separated by SDS-PAGE, transferred to polyvinylidene difluoride membrane and analyzed by immunoblotting. […]"}, "[2]": {"test_system": "primary human steatotic hepatocytes", "assay": "Fat depletion in primary human hepatocytes isolated from steatotic livers of patients with NAFLD", "format": "cell-based", "settings": "20 μM, 24 h", "procedure": "FIG. 7. RIPA-56 treatment induces fat depletion in primary human hepatocytes. Primary human hepatocytes were isolated from steatotic human livers of patients with NAFLD (n=5) (A-C) or from non-steatotic human livers and incubated with free fatty acids to induce steatosis or without (W/O) (n=5) (D-G), and treated with RIPA-56 (20 μM) or DMSO (vehicle) for 24 h. (A, D) Representative Oil Red-O and DAPI images; (B, E) Quantification of Oil Red-O staining normalized for the number of DAPI-stained nuclei; (C, F) Quantification of intracellular triglycerides normalized to protein content; (G) mRNA levels of CPT1A, MTTP and APOB100 were assessed by RT-qPCR, and shown relative to DMSO-treated hepatocytes. Results are shown as mean±SEM; n.s., not significant; *p<0.05; **p<0.01; scale bars, 100 μm. […]\nThe liver fragment was initially perfused with a prewarmed (37° C.) calcium-free buffer supplemented with 5 mmol/L ethylene glycol tetra-acetic acid (Sigma) followed by perfusion with a prewarmed (37° C.) buffer containing 6 mmol/L calcium (CaCl2) and collagenase 0.05% ([…]) (Sigma). […] The count of viable cells was determined using trypan blue exclusion. […]\nIntracellular lipids were stained by means of Oil Red-O (Sigma). […] Fluorescence images were viewed with IX83 Olympus microscope, acquired with Cell-Sens V1.6 and analyzed with FIJI software. […]"}}, "data": [{"compound": "CCC(C)(C)C(=O)N(O)Cc1ccccc1", "note": "[RIPA-56, N-Benzyl-N-hydroxy-2,2-dimethylbutanamide]", "values": [{"measurement": "phosphorylation and activation of MLKL", "setting": "[1]", "result": "inhibited"}, {"measurement": "intracellular lipid droplets (Oil Red-O)", "setting": "[2]", "result": "marked decrease"}, {"measurement": "intracellular triglyceride content", "setting": "[2]", "result": "marked decrease"}]}]}
